{
  "source": "patent US20260159474A1",
  "about": "“Aminoindane Compounds and Compositions and Methods of Their Therapeutic Use” (Solvonis Therapeutics Ireland Holdings Limited, priority 2021, published 2026)",
  "assay_in_all_cases": "CYP450 inhibition, fluorescent probe substrate",
  "type_in_all_cases": "in vitro ADME",
  "key": {"CYP1A2": {"target": "T1, CYP1A2 (Homo sapiens, UniProt P05177)", "T1 construct": "host or cells: recombinant microsomes", "T1 sequence (P05177 1-516)": "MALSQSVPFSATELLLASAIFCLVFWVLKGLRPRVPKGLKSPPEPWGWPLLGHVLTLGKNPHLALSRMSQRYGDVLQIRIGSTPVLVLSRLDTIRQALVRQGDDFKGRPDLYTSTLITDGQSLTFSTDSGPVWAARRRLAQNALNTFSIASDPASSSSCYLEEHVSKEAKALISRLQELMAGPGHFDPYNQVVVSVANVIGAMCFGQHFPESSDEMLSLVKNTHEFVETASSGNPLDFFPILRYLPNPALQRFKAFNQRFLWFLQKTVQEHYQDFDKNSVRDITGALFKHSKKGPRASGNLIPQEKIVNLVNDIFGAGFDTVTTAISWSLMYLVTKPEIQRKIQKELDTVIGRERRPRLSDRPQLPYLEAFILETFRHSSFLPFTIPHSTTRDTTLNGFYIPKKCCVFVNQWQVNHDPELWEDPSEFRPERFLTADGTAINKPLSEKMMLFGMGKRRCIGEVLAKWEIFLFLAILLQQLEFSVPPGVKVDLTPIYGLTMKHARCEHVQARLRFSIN", "method": "(§1) Methods: Recombinant human CYP450 isoenzymes were used to metabolize pro-fluorescent probe substrates to fluorescent products. IC50 values determined from the effect of test compounds on the metabolism of these probe substrates were then used to determine inhibitory potency against CYP450 isoforms. The chemical reagents included:\n(§2) The test system was based on a three-step procedure with a “mix and read” format, where reaction and reading were performed at 37° C. The assays described herein measure in vitro inhibitory effects (pIC50) of compounds on the human P450 isoforms (1A2, 2B6, 2C8, 2C9, 2C19, 2D6, 3A4) expressed in recombinant microsomes. Pro-fluorescent probe substrates were metabolized to fluorescent products by the enzymes. Fluorescence was measured in kinetic mode (1 read/minutes for 10 minutes), and the fluorescence rate was calculated.\n(§3) Inhibition of the fluorescent signal resulting from P450 activation indicated inhibitory activity and facilitated calculation of the compound pIC50. A quality check was included in each compound plate, wherein the signal window was monitored by performing Z′ calculations ([…] ) and the antagonist potency of internal standards was within the pIC50±2SD range. Concentration response curves (CRCs) of compounds were run on two different test occasions (n 2) by preparing serial dilutions from the same compound stock solution.\n(§4) To prepare the compound plate, test compounds serial dilutions 1 to 3 were performed from a 10 mM stock solution in DMSO by Biomek FX to generate 10 point CRC with the highest concentrations in columns 3 and 13.\n(§5) 100% DMSO was placed in columns 1 and 2 and used for assay low controls. CYP inhibitor (10 mM miconazole solution in DMSO) was placed in columns 23 and 24 and served as an assay high controls. 1 μL copy plates were then stamped into V-bottom drug plates at a concentration that is 200 fold the final assay concentration. The copy plates were diluted prior to the experiment with assay buffer to reach 4 times the final assay concentration (2% w/v DMSO).\n(§6) A reference compound (e.g., miconazole) was included in each compound plate in row A, column 3 and 13. The reference compound was diluted and stamped together with test compounds. The final concentrations of the 10 point CRCs of test compounds in the assay plate were 5.00E-05; 1.67E-05; 5.56E-06; 1.85E-06; 6.17E-07; 2.06E-07; 6.86E-08; 2.29E-08; 7.62E-09 and 2.54E-09, respectively. All solutions were prepared immediately before the assay.\n(§7) Microsomes were added to the buffer prior to the substrate addition. The solution was carefully mixed without vortexing. 30 μL/well of the mixture was then transferred to the assay plate (384-well black plate) using a 16-channel pipette. For each P450 isoformn, a separate plate was prepared and labeled with a barcode. For fluorescence measurement, 10 μL/well of the test compounds were transferred from the compound plate to the assay plate using Biomek FX and the appropriate protocol. The assay plate was then incubated at 37° C. for 10 minutes on a shaker to allow for the interaction between compounds and enzymes.\n(§8) 10 μL/well of the cofactor was then added to the assay plate using the Multidrop before placing the assay plate in the plate reader EnVision to measure fluorescence. The overall final DMSO concentration for the assay was 0.5%. Plates were read every minute for 10 minutes, according to a P450 isoform specific protocol, as shown below.\n(§9) Regarding data analysis, inhibition is expressed as a percentage. […] Curve fitting and pIC50 estimations are carried out using a four-parameter logistic model in Morphit."}, "CYP2C19": {"target": "T2, CYP2C19 (Homo sapiens, UniProt P33261)", "T2 construct": "host or cells: recombinant microsomes", "T2 sequence (P33261 whole entry)": "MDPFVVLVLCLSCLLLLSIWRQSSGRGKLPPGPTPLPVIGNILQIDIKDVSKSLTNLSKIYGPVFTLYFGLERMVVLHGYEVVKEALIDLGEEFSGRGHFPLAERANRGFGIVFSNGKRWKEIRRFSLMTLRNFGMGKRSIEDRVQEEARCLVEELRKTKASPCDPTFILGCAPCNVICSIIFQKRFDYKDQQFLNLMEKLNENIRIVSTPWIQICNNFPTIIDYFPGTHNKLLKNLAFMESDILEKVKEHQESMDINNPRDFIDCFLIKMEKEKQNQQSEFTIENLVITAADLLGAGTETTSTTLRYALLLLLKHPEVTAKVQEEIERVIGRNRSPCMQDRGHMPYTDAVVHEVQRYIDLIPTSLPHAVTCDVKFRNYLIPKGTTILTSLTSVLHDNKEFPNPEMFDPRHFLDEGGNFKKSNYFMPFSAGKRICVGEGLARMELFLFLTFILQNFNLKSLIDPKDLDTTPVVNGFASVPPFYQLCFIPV", "method": "as §1, §2, §3, §4, §5, §6, §7, §8, §9"}, "CYP2D6": {"target": "T3, CYP2D6 (Homo sapiens, UniProt P10635)", "T3 construct": "host or cells: recombinant microsomes", "T3 sequence (P10635 whole entry)": "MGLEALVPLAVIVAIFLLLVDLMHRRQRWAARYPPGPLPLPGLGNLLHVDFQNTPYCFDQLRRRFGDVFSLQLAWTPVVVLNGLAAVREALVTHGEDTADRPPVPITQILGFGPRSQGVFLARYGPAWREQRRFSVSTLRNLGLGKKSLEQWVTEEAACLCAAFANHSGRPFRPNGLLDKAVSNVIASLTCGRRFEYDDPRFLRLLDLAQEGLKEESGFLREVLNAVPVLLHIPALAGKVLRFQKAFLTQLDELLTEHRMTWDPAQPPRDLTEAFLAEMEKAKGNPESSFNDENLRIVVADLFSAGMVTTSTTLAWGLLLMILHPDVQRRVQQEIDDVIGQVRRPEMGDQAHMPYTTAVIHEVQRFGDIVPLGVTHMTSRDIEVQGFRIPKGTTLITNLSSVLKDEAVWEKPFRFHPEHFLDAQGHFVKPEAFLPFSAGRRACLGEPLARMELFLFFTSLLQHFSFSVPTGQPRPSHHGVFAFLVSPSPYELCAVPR", "method": "as §1, §2, §3, §4, §5, §6, §7, §8, §9"}, "[1]": {"settings": "recombinant human isoenzyme, n=2"}, "[2]": {"settings": "recombinant human isoenzyme, n=2, read-out: Inhibition of CYP1A2, IC50"}, "[3]": {"settings": "recombinant human isoenzyme, n=2, read-out: Inhibition of CYP2C19, IC50"}, "[4]": {"settings": "recombinant human isoenzyme, n=2, read-out: Inhibition of CYP2D6, IC50"}},
  "note": "Read-outs that look alike come from different tables or passages of the source.",
  "data": [
    {"smiles": "COC(=O)c1cc2c(cc1OC)CC(N)C2", "note": "(stereo not shown) [CMP-401]", "values": [
      {"measurement": "Inhibition of CYP1A2, IC50", "setting": "CYP1A2; [1]", "value": "displayed inhibitory activity at CYP1A2"},
      {"measurement": "IC50", "setting": "CYP1A2; [2]", "value": 1.21, "unit": "µM"},
      {"measurement": "IC50", "setting": "CYP2C19; [3]", "value": "> 50", "unit": "µM"},
      {"measurement": "IC50", "setting": "CYP2D6; [4]", "value": "> 50", "unit": "µM"}
    ]},
    {"smiles": "COC(=O)COc1ccc2c(c1)CC(N)C2", "note": "(stereo not shown) [CMP-402]", "values": [
      {"measurement": "Inhibition of CYP1A2, IC50", "setting": "CYP1A2; [1]", "value": "displayed inhibitory activity at CYP1A2"},
      {"measurement": "IC50", "setting": "CYP1A2; [2]", "value": 1.07, "unit": "µM"},
      {"measurement": "IC50", "setting": "CYP2C19; [3]", "value": "> 50", "unit": "µM"},
      {"measurement": "IC50", "setting": "CYP2D6; [4]", "value": "> 50", "unit": "µM"}
    ]},
    {"smiles": "COC(=O)c1ccc2c(c1)CC(N)C2", "note": "(stereo not shown) [CMP-405, 2-aminoindane-5-methylcarboxylate]", "values": [
      {"measurement": "Inhibition of CYP1A2, IC50", "setting": "CYP1A2; [1]", "value": "displayed inhibitory activity at CYP1A2"},
      {"measurement": "IC50", "setting": "CYP1A2; [2]", "value": 0.61, "unit": "µM"},
      {"measurement": "IC50", "setting": "CYP2C19; [3]", "value": "> 50", "unit": "µM"},
      {"measurement": "IC50", "setting": "CYP2D6; [4]", "value": 23, "unit": "µM"}
    ]},
    {"smiles": "CNC(C)Cc1ccc2c(c1)OCO2", "note": "(stereo not shown) [MDMA]", "values": [
      {"measurement": "IC50", "setting": "CYP1A2; [2]", "value": "> 50", "unit": "µM"},
      {"measurement": "IC50", "setting": "CYP2C19; [3]", "value": "> 50", "unit": "µM"},
      {"measurement": "IC50", "setting": "CYP2D6; [4]", "value": 1.6, "unit": "µM"}
    ]},
    {"smiles": "COc1ccc2c(c1)CC(N)C2", "note": "(stereo not shown) [MEAI, 5-methoxy-2-aminoindane]", "values": [
      {"measurement": "IC50", "setting": "CYP1A2", "value": "> 50", "unit": "µM"},
      {"measurement": "IC50", "setting": "CYP2C19", "value": "> 50", "unit": "µM"},
      {"measurement": "IC50", "setting": "CYP2D6", "value": 37, "unit": "µM"}
    ]},
    {"smiles": "COc1cc2c(cc1C)CC(N)C2", "note": "(stereo not shown) [MMAI, 5-methoxy-6-methyl-2-aminoindane]", "values": [
      {"measurement": "IC50", "setting": "CYP1A2", "value": 2.11, "unit": "µM"},
      {"measurement": "Inhibition of CYP1A2, IC50", "setting": "CYP1A2; [1]", "value": "displayed inhibitory activity at CYP1A2"},
      {"measurement": "IC50", "setting": "CYP2C19", "value": "> 50", "unit": "µM"},
      {"measurement": "IC50", "setting": "CYP2D6", "value": 33.6, "unit": "µM"}
    ]}
  ]
}
